For 35 compounds, class results are on record in US20050197350A1, “Novel quinoline, tetrahydroquinazoline, and pyrimidine derivatives and methods of treatment related to the use thereof” (TAISHO PHARMACEUTICAL CO., LTD., priority 2003, published 2005).

This test deals with MCH receptors. Put plainly: MCH receptor activity class (method not given).
The mark [1] stands for this setting: class by percent of control at 10^-7 M or IC50.
Where [2] appears, read: activity class 1-3: percent of control at 10^-7 M or IC50.
Where [3] appears, read: MCH receptor, class by percent of control at 10^-7 M or IC50.
Where [4] appears, read: activity class per percent of control at 10^-7 M or IC50.
Setting [5] is: MCH receptor activity class 1-3 (percent of control at 10^-7 M or IC50).
Where [6] appears, read: class by percent of control at 10^−7 M or IC50.
Setting [7] is: class 1-3 by percent of control at 10^-7 M or IC50.

Read-outs that look alike come from different tables or passages of the source.

Regarding `COc1ccc(Br)cc1CNC[C@H]1CC[C@@H](Nc2nc3c(c(N(C)C)n2)CCCC3)CC1` [compound 1387], the class under setting [1] is recorded as 3 (Class 3 The value of percent of control at 10^−7 M was more than 60% or the value of IC50 was more than 200 nM.).
Same read-out and setting: with `CN(C)c1ccnc(N[C@H]2CC[C@@H](NC(=O)C3CCCC3)CC2)n1` [compound 343] the figure was 3 (Class 3 The value of percent of control at 10^−7 M was more than 60% or the value of IC50 was more than 200 nM.).
Take `Cc1cc(N(C)C)nc(N[C@H]2CC[C@@H](C(=O)NCc3ccc(Cl)cc3)CC2)n1` [Example 2580, cis-N-(4-chlorobenzyl)-4-{[4-(dimethylamino)-6-methylpyrimidin-2-yl]amino}cyclohexanecarboxamide]: the class is given as 1.
Consider `CC(C)[C@@H]1CC[C@@H](C)CC1OC(=O)NC[C@H]1CC[C@@H](Nc2nc3c(c(N(C)C)n2)CCCC3)CC1` (some centres unmarked) [compound 1613], for which, under setting [2], the class is recorded as 3 (Class 3 The value of percent of control at 10^−7 M was more than 60% or the value of IC50 was more than 200 nM.).
In the case of `CN(C)c1nc(N[C@H]2CC[C@@H](NC(=S)Nc3ccc4nsnc4c3)CC2)nc2c1CCCC2` [compound 2084], the class under setting [3] is 3 (Class 3 The value of percent of control at 10^−7 M was more than 60% or the value of IC50 was more than 200 nM.).
As for `COc1cc(CC(=O)N[C@H]2CC[C@@H](Nc3nc4c(c(N(C)C)n3)CCCC4)CC2)ccc1OCc1ccccc1` [compound 1012], the class under setting [4] is reported as 3 (Class 3 The value of percent of control at 10^−7 M was more than 60% or the value of IC50 was more than 200 nM.).
For the compound `CCOC(=O)[C@H](CC(C)C)NC(=O)N[C@H]1CC[C@@H](Nc2nc3c(c(N(C)C)n2)CCCC3)CC1` (relative stereo) [compound 1663], under setting [2], the class is 3 (Class 3 The value of percent of control at 10^−7 M was more than 60% or the value of IC50 was more than 200 nM.).
On to `Cc1cc(C(=O)NC[C@H]2CC[C@@H](Nc3cc(N(C)C)c4ccccc4n3)CC2)c(C(F)(F)F)o1` [compound 197], for which, under setting [3], the class was 3 (Class 3 The value of percent of control at 10^−7 M was more than 60% or the value of IC50 was more than 200 nM.).
For `CCc1ccccc1NC(=O)NC[C@H]1CC[C@@H](Nc2cc(N(C)C)c3ccccc3n2)CC1` [compound 2377], the class under setting [5] was 3 (Class 3 The value of percent of control at 10^−7 M was more than 60% or the value of IC50 was more than 200 nM.).
Turning to `Cc1cnc(N[C@H]2CC[C@@H](NC(=O)c3ccccc3C(F)(F)F)CC2)nc1N(C)C` [compound 2918], the class under setting [6] is recorded as 3 (Class 3 The value of percent of control at 10^−7 M was more than 60% or the value of IC50 was more than 200 nM.).
For `COc1cc(NC(=S)N[C@H]2CC[C@@H](Nc3nccc(N(C)C)n3)CC2)cc(OC)c1OC` [compound 2265, N-(cis-4-{[4-(dimethylamino)pyrimidin-2-yl]amino}cyclohexyl)-N′-(3,4,5-trimethoxyphenyl)thiourea], the class under setting [1] is reported as 1 (Class 1: The value of percent of control at 10^−7 M was less than 40% or the value of IC50 was less than 50 nM.).
Take `CN(C)c1nc(N[C@H]2CC[C@@H](NC(=O)Nc3cc(Cl)nc(Cl)c3)CC2)nc2c1CCCC2` [compound 1923]: under setting [3], the class is reported as 3 (Class 3 The value of percent of control at 10^−7 M was more than 60% or the value of IC50 was more than 200 nM.).
As for `CN(C)c1nc(N[C@H]2CC[C@@H](NC(=O)c3ccc(F)cc3)CC2)nc2c1CCCC2` [compound 473], the class under setting [7] is 1 (Class 1: The value of percent of control at 10^−7 M was less than 40% or the value of IC50 was less than 50 nM.).
On to `CN(C)c1ccnc(N[C@H]2CC[C@@H](NC(=O)c3ccc([N+](=O)[O-])s3)CC2)n1` [compound 827, N-(cis-4-{[4-(dimethylamino)pyrimidin-2-yl]amino}cyclohexyl)-5-nitrothiophene-2-carboxamide], for which the class under setting [1] is recorded as 2 (Class 2: The value of percent of control at 10^−7 M was from 40% to 60% or the value of IC′50 was from 50 nM to 200 nM.).
On the same count and under the same terms, next, `CN(C)c1cc(N[C@H]2CC[C@@H](CNCc3c(F)c(F)cc(F)c3F)CC2)nc2ccccc12` [compound 1472]: 3 (Class 3 The value of percent of control at 10^−7 M was more than 60% or the value of IC50 was more than 200 nM.); `CN(C)c1cc(N[C@H]2CC[C@@H](CNC(=O)c3c(F)cccc3C(F)(F)F)CC2)nc2ccccc12` [compound 230]: 3 (Class 3 The value of percent of control at 10^−7 M was more than 60% or the value of IC50 was more than 200 nM.).
For the compound `CCOc1cc(CN[C@H]2CC[C@@H](Nc3nccc(N(C)C)n3)CC2)ccc1OC` [compound 1217], the class under setting [1] is listed as 3 (Class 3 The value of percent of control at 10^−7 M was more than 60% or the value of IC50 was more than 200 nM.).
`Cc1ccc(OC(=O)NC[C@H]2CC[C@@H](Nc3nc4c(c(N(C)C)n3)CCCC4)CC2)cc1` [compound 1614]: under setting [2], the class is listed as 3 (Class 3 The value of percent of control at 10^−7 M was more than 60% or the value of IC50 was more than 200 nM.).
As to `Cc1cccc(C(C)(C)C)c1NC(=O)NC[C@H]1CC[C@@H](Nc2cc(N(C)C)c3ccccc3n2)CC1` [compound 2383, N-(2-tert-butyl-6-methylphenyl)-N′-[(cis-4-{[4-(dimethylamino)quinolin-2-yl]amino}cyclohexyl)methyl]urea], the class under setting [5] is 1 (Class 1: The value of percent of control at 10^−7 M was less than 40% or the value of IC50 was less than 50 nM.).
For `CN(C)c1nc(N[C@H]2CC[C@@H](NC(=S)NCc3cccc(Cl)c3)CC2)nc2c1CCCC2` [compound 1772], under setting [1], the class is on record as 3 (Class 3 The value of percent of control at 10^−7 M was more than 60% or the value of IC50 was more than 200 nM.).
Same read-out and setting: next, `CN(C)c1cc(N[C@H]2CC[C@@H](NC(=O)/C=C/c3cccc([N+](=O)[O-])c3)CC2)nc2ccccc12` [compound 683]: 2 (Class 2: The value of percent of control at 10^−7 M was from 40% to 60% or the value of IC′50 was from 50 nM to 200 nM.).
The same measure, in the same setting: with `CSc1sc(C(=O)N[C@H]2CC[C@@H](Nc3nccc(N(C)C)n3)CC2)c(Cl)c1S(=O)(=O)C(C)C` [compound 904, 3-chloro-N-(cis-4-{[4-(dimethylamino)pyrimidin-2-yl]amino}cyclohexyl)-4-(isopropylsulfonyl)-5-(methylthio)thiophene-2-carboxamide] the figure was 2 (Class 2: The value of percent of control at 10^−7 M was from 40% to 60% or the value of IC′50 was from 50 nM to 200 nM.); with `CN(C)c1ccnc(N[C@H]2CC[C@@H](CNCc3cn(C)c4ccccc34)CC2)n1` [compound 1300], 2 (Class 2: The value of percent of control at 10^−7 M was from 40% to 60% or the value of IC′50 was from 50 nM to 200 nM.).
As for `CN(C)c1cc(N[C@H]2CC[C@@H](CNC(=O)c3cccc(C(F)(F)F)c3F)CC2)nc2ccccc12` [compound 191], under setting [3], the class is on record as 3 (Class 3 The value of percent of control at 10^−7 M was more than 60% or the value of IC50 was more than 200 nM.).
With `CCOc1cccc(C(=O)N[C@H]2CC[C@@H](Nc3nc(C)cc(N(C)C)n3)CC2)c1` [compound 2976, N-(cis-4-{[4-(dimethylamino)-6-methylpyrimidin-2-yl]amino}cyclohexyl)-3-ethoxybenzamide], the class under setting [6] is reported as 2 (Class 2: The value of percent of control at 10^−7 M was from 40% to 60% or the value of IC′50 was from 50 nM to 200 nM.).
As to `CN(C)c1ccnc(N[C@H]2CC[C@@H](CNCc3ccc(O)cc3)CC2)n1` [compound 1275], under setting [1], the class is recorded as 3 (Class 3 The value of percent of control at 10^−7 M was more than 60% or the value of IC50 was more than 200 nM.).
`COC(C(=O)N[C@H]1CC[C@@H](Nc2nccc(N(C)C)n2)CC1)c1ccccc1` (relative stereo) [compound 916]: the class under setting [1] is given as 3 (Class 3 The value of percent of control at 10^−7 M was more than 60% or the value of IC50 was more than 200 nM.).
Turning to `CN(C)c1nc(N[C@H]2CC[C@@H](NC(=O)CC3CCCC3)CC2)nc2c1CCCC2` [compound 511], the class under setting [7] was 3 (Class 3 The value of percent of control at 10^−7 M was more than 60% or the value of IC50 was more than 200 nM.).
Still for that read-out and setting: next, `CN(C)c1nc(N[C@H]2CC[C@@H](NC(=O)CCc3ccccc3)CC2)nc2c1CCCC2` [compound 563]: 3 (Class 3 The value of percent of control at 10^−7 M was more than 60% or the value of IC50 was more than 200 nM.).
As to `Cc1cnc(N[C@H]2CC[C@@H](CNC(=O)c3ccc4c(c3)OC(F)(F)O4)CC2)nc1N(C)C` [compound 2708], under setting [6], the class is on record as 2 (Class 2: The value of percent of control at 10^−7 M was from 40% to 60% or the value of IC′50 was from 50 nM to 200 nM.).
Same read-out and setting: next, `Cc1cc(N(C)C)nc(N[C@H]2CC[C@@H](C(=O)NCc3ccc(Cl)cc3)CC2)n1` [compound 2816, cis-N-(4-chlorobenzyl)-4-{[4-(dimethylamino)-6-methylpyrimidin-2-yl]amino}cyclohexanecarboxamide]: 1 (Class 1: The value of percent of control at 10^−7 M was less than 40% or the value of IC50 was less than 50 nM.).
Take `CN(C)c1cc(N[C@H]2CC[C@@H](CNCc3cc(Cl)cc(Cl)c3)CC2)nc2ccccc12` [compound 1187]: the class under setting [1] is 3 (Class 3 The value of percent of control at 10^−7 M was more than 60% or the value of IC50 was more than 200 nM.).
Regarding `COc1ccc2[nH]cc(CN[C@H]3CC[C@@H](Nc4cc(N(C)C)c5ccccc5n4)CC3)c2c1` [compound 1090], the class under setting [4] was 3 (Class 3 The value of percent of control at 10^−7 M was more than 60% or the value of IC50 was more than 200 nM.).
`CN(C)c1nc(N[C@H]2CC[C@@H](NC(=O)c3cc(C(F)(F)F)cc(C(F)(F)F)c3)CC2)nc2c1CCCC2` [compound 514]: under setting [7], the class is recorded as 1 (Class 1: The value of percent of control at 10^−7 M was less than 40% or the value of IC50 was less than 50 nM.).
As for `CN(C)c1ccnc(N[C@H]2CC[C@@H](NCc3ccc(F)c(Cl)c3)CC2)n1` [compound 1242], the class under setting [1] is 3 (Class 3 The value of percent of control at 10^−7 M was more than 60% or the value of IC50 was more than 200 nM.).
